Experimental data as given in US10399988B2, “4-aminopyrazolo[3,4-d]pyrimidinylazabicyclo derivatives and pharmaceutical composition comprising the same” (Daewoong Pharmaceutical Co., Ltd., priority 2016, dated 2019).
Counter-ions that a name gives are not always drawn.

Key:
BTK = BTK (Homo sapiens, UniProt Q06187); experiment: Inhibitory activity against BTK (ADP-Glo + BTK Kinase enzyme system kit)
ITK = target: T1, ITK (Homo sapiens, UniProt Q08881); experiment: Inhibitory activity against ITK (ADP-Glo + ITK Kinase enzyme system kit); selectivity BTK vs. ITK; format: biochemical; details: for IC50: ITK enzyme 0.4 ng/uL, ATP 25 uM, luminescence, duplicate; for Selectivity (based on IC50): selectivity for the inhibitory activity of BTK vs. ITK, Equation 1
T1 construct: purchased Promega Corporation
T1 sequence (Q08881 1-620): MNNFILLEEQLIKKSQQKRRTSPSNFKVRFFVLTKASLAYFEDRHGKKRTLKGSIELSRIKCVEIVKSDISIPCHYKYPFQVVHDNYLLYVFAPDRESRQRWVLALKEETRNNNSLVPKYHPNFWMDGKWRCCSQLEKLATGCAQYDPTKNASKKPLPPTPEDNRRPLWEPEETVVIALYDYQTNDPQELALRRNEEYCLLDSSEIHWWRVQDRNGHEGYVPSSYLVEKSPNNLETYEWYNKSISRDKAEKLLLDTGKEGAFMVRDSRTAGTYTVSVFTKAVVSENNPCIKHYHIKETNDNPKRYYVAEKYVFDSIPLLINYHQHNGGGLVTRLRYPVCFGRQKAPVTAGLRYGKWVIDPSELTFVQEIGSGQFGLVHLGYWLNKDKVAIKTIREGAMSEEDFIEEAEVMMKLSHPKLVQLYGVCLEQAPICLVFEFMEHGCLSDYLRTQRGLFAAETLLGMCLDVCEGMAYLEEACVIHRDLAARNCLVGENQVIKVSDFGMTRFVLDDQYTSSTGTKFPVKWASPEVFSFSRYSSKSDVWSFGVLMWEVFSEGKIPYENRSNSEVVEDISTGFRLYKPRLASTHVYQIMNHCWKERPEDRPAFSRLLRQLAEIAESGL

BTK, sequence (Q06187 whole entry): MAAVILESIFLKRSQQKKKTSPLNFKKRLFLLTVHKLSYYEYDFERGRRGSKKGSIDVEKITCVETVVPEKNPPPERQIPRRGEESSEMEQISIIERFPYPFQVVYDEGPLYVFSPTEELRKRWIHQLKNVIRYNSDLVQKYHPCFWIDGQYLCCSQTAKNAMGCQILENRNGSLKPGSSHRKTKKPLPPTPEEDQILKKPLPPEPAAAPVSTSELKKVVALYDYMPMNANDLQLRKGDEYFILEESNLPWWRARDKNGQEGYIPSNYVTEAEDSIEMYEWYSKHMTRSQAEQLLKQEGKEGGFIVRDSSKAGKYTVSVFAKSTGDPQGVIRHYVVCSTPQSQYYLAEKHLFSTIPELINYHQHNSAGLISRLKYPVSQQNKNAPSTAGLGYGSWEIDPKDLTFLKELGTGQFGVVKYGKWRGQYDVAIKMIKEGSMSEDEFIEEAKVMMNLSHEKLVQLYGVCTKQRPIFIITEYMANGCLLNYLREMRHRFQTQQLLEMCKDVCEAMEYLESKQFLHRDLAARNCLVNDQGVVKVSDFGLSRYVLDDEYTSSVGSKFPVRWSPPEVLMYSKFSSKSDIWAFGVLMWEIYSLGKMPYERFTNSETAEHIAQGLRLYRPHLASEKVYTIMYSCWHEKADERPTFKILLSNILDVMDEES

Row | IC50 (BTK) | IC50 (ITK) | Selectivity (based on IC50) (ITK) | Structure (SMILES)
1 | 36.4 nM | – | – | CN(C)C/C=C/C(=O)N1CC2CC1C(n1nc(-c3ccc(C(=O)Nc4ccccn4)cc3)c3c(N)ncnc31)C2 (stereo not drawn) [Ex. 60, (E)-4-(4-amino-1-(2-(4-(dimethylamino)but-2-enoyl)-2-azabicyclo[2.2.1]heptan-6-yl)-1H-pyrazolo[3,4-d]pyrimidin-3-yl)-N-(pyridin-2-yl)benzamide]
2 | 136 nM | – | – | CN1CCN(C/C=C/C(=O)N2CC3CC2C(n2nc(-c4ccc(C(=O)Nc5ccccn5)cc4)c4c(N)ncnc42)C3)CC1 (stereo not drawn) [Ex. 61, (E)-4-(4-amino-1-(2-(4-(4-methylpiperazin-1-yl)but-2-enoyl)-2-azabicyclo[2.2.1]heptan-6-yl)-1H-pyrazolo[3,4-d]pyrimidin-3-yl)-N-(pyridin-2-yl)benzamide]
3 | 5.8 nM | – | – | CN1CCN(C/C=C/C(=O)N2CC3CC2C(n2nc(-c4ccc(Oc5ccccc5)cc4)c4c(N)ncnc42)C3)CC1 (stereo not drawn) [Ex. 62, (E)-1-(6-(4-amino-3-(4-phenoxyphenyl)-1H-pyrazolo[3,4-d]pyrimidin-1-yl)-2-azabicyclo[2.2.1]heptan-2-yl)-4-(4-methylpiperazin-1-yl)but-2-en-1-one]
4 | 6.7 nM | – | – | Nc1ncnc2c1c(-c1ccc(Oc3ccccc3)cc1)nn2C1CC2CC1CN2C(=O)/C=C/CBr (stereo not drawn) [Ex. 65, (E)-1-(5-(4-amino-3-(4-phenoxyphenyl)-1H-pyrazolo[3,4-d]pyrimidin-1-yl)-2-azabicyclo[2.2.1]heptan-2-yl)-4-bromobut-2-en-1-one]
5 | 49.6 nM | – | – | Nc1ncnc2c1c(-c1ccc(Oc3ccccc3)cc1)nn2C1CC2CC1CN2C(=O)/C=C/CN1CCCCC1 (stereo not drawn) [Ex. 66, (E)-1-(5-(4-amino-3-(4-phenoxyphenyl)-1H-pyrazolo[3,4-d]pyrimidin-1-yl)-2-azabicyclo[2.2.1]heptan-2-yl)-4-(piperidin-1-yl)but-2-en-1-one]
6 | 6.3 nM | – | – | C=CC(=O)N1CC2CC1C(n1nc(-c3ccc(C(=O)Nc4cccc(C(F)(F)F)n4)cc3)c3c(N)ncnc31)C2 (stereo not drawn) [Ex. 70, 4-(1-(2-acryloyl-2-azabicyclo[2.2.1]heptan-6-yl)-4-amino-1H-pyrazolo[3,4-d]pyrimidin-3-yl)-N-(6-(trifluoromethyl)pyridin-2-yl)benzamide]
7 | 1.1 nM | – | – | C=CC(=O)N1C[C@@H]2C[C@H]1[C@@H](n1nc(-c3ccc(C(=O)Nc4cc(F)ccn4)cc3F)c3c(N)ncnc31)C2 [Ex. 73, 4-(1-((1S,4R,6S)-2-acryloyl-2-azabicyclo[2.2.1]heptan-6-yl)-4-amino-1H-pyrazolo[3,4-d]pyrimidin-3-yl)-3-fluoro-N-(4-fluoropyridin-2-yl)benzamide]
8 | 123 nM | – | – | N#CCC(=O)N1C[C@@H]2C[C@@H]1[C@@H](n1nc(-c3ccc(C(=O)Nc4ccccn4)cc3)c3c(N)ncnc31)C2 [Ex. 74, 4-(4-amino-1-((1R,4R,6S)-2-(2-cyanoacetyl)-2-azabicyclo[2.2.1]heptan-6-yl)-1H-pyrazolo[3,4-d]pyrimidin-3-yl)-N-(pyridin-2-yl)benzamide]
9 | 10 nM | – | – | CC(C)C=C(C#N)C(=O)N1C[C@H]2CC(n3nc(-c4ccc(C(=O)Nc5ccccn5)cc4)c4c(N)ncnc43)[C@H]1C2 (stereo partly drawn) [Ex. 76, 4-(4-amino-1-((1R,4R)-2-(2-cyano-4-methylpent-2-enoyl)-2-azabicyclo[2.2.1]heptan-6-yl)-1H-pyrazolo[3,4-d]pyrimidin-3-yl)-N-(pyridin-2-yl)benzamide]
10 | 6.4 nM | – | – | C=CC(=O)N1C[C@@H]2C[C@H]1[C@@H](n1nc(-c3ccc(C(=O)Nc4ncccc4C)cc3)c3c(N)ncnc31)C2 [Ex. 77, 4-(1-((1S,4R,6S)-2-acryloyl-2-azabicyclo[2.2.1]heptan-6-yl)-4-amino-1H-pyrazolo[3,4-d]pyrimidin-3-yl)-N-(3-methylpyridin-2-yl)benzamide]
11 | 5.2 nM | – | – | C=CC(=O)N1C[C@@H]2C[C@H]1[C@@H](n1nc(-c3ccc(C(=O)Nc4ncccc4C(F)(F)F)cc3)c3c(N)ncnc31)C2 [Ex. 78, 4-(1-((1S,4R,6S)-2-acryloyl-2-azabicyclo[2.2.1]heptan-6-yl)-4-amino-1H-pyrazolo[3,4-d]pyrimidin-3-yl)-N-(3-(trifluoromethyl)pyridin-2-yl)benzamide]
12 | 77.1 nM | – | – | C=CC(=O)N1C[C@@H]2C[C@H]1[C@@H](n1nc(-c3ccc(C(=O)NC)cc3F)c3c(N)ncnc31)C2 [Ex. 79, 4-(1-((1S,4R,6S)-2-acryloyl-2-azabicyclo[2.2.1]heptan-6-yl)-4-amino-1H-pyrazolo[3,4-d]pyrimidin-3-yl)-3-fluoro-N-methylbenzamide]
13 | > 100 nM | – | – | C=C(C)C(=O)N1C[C@@H]2C[C@@H]1[C@@H](n1nc(-c3ccc(C(=O)Nc4ccccn4)cc3)c3c(N)ncnc31)C2 [Ex. 84, 4-(4-amino-1-((1R,4R,6S)-2-methacryloyl-2-azabicyclo[2.2.1]heptan-6-yl)-1H-pyrazolo[3,4-d]pyrimidin-3-yl)-N-(pyridin-2-yl)benzamide]

Second part, the compound before the results:

Row | Structure (SMILES) | IC50 (BTK) | IC50 (ITK) | Selectivity (based on IC50) (ITK)
14 | C=CC(=O)N1CC2CC1C(n1nc(-c3ccc(Oc4ccccc4)cc3)c3c(N)ncnc31)C2 (stereo not drawn) [Ex. 1, 1-(6-(4-amino-3-(4-phenoxyphenyl)-1H-pyrazolo[3,4-d]pyrimidin-1-yl)-2-azabicyclo[2.2.1]heptan-2-yl)prop-2-en-1-one] | 2.1 nM | 189 nM | 89.9
15 | C#CC(=O)N1CC2CC1C(n1nc(-c3ccc(Oc4ccccc4)cc3)c3c(N)ncnc31)C2 (stereo not drawn) [Ex. 2, 1-(6-(4-amino-3-(4-phenoxyphenyl)-1H-pyrazolo[3,4-d]pyrimidin-1-yl)-2-azabicyclo[2.2.1]heptan-2-yl)prop-2-yn-1-one] | 0.8 nM | 26.3 nM | 32.9
16 | C#CC(=O)N1CC2CC1C(n1nc(-c3ccc(C(=O)Nc4ccccn4)cc3)c3c(N)ncnc31)C2 (stereo not drawn) [Ex. 4, 4-(4-amino-1-(2-propioloyl-2-azabicyclo[2.2.1]heptan-6-yl)-1H-pyrazolo[3,4-d]pyrimidin-3-yl)-N-(pyridin-2-yl)benzamide] | 2.8 nM | 104 nM | 37.1
17 | C=CC(=O)N1CC2CC1CC2n1nc(-c2ccc(Oc3ccccc3)cc2)c2c(N)ncnc21 (stereo not drawn) [Ex. 12, 1-(5-(4-amino-3-(4-phenoxyphenyl)-1H-pyrazolo[3,4-d]pyrimidin-1-yl)-2-azabicyclo[2.2.1]heptan-2-yl)prop-2-en-1-one] | 3.3 nM | > 1000 nM | >303.3
18 | C=CC(=O)N1CC2CC1C(n1nc(-c3ccc(C(=O)Nc4cccc(C(C)C)c4)cc3)c3c(N)ncnc31)C2 (stereo not drawn) [Ex. 47, 4-(1-(2-acryloyl-2-azabicyclo[2.2.1]heptan-6-yl)-4-amino-1H-pyrazolo[3,4-d]pyrimidin-3-yl)-N-(3-isopropylphenyl)benzamide] | 10.9 nM | – | –
19 | C=CC(=O)N1CC2CC1C(n1nc(-c3ccc(NC(=O)c4cccc(N(C)C)c4)cc3)c3c(N)ncnc31)C2 (stereo not drawn) [Ex. 50, N-(4-(1-(2-acryloyl-2-azabicyclo[2.2.1]heptan-6-yl)-4-amino-1H-pyrazolo[3,4-d]pyrimidin-3-yl)phenyl)-3-(dimethylamino)benzamide] | 28.6 nM | – | –
20 | C=CC(=O)N1CC2CC1C(n1nc(-c3ccc(Oc4cccc(N)c4)cc3)c3c(N)ncnc31)C2 (stereo not drawn) [Ex. 51, 1-(6-(4-amino-3-(4-(3-aminophenoxy)phenyl)-1H-pyrazolo[3,4-d]pyrimidin-1-yl)-2-azabicyclo[2.2.1]heptan-2-yl)prop-2-en-1-one hydrochloride] | 107 nM | – | –
21 | C=CC(=O)N1CC2CC1C(n1nc(-c3ccc(C(=O)Nc4ccccc4)cc3F)c3c(N)ncnc31)C2 (stereo not drawn) [Ex. 52, 4-(1-(2-acryloyl-2-azabicyclo[2.2.1]heptan-6-yl)-4-amino-1H-pyrazolo[3,4-d]pyrimidin-3-yl)-3-fluoro-N-phenylbenzamide] | 5.1 nM | – | –
22 | C=CC(=O)N1CC2CC1C(n1nc(-c3ccc(C(=O)Nc4ccccc4N(C)C)cc3)c3c(N)ncnc31)C2 (stereo not drawn) [Ex. 55, 4-(1-(2-acryloyl-2-azabicyclo[2.2.1]heptan-6-yl)-4-amino-1H-pyrazolo[3,4-d]pyrimidin-3-yl)-N-(2-(dimethylamino)phenyl)benzamide] | 8.5 nM | – | –
23 | C=CC(=O)N1CC2CC1C(n1nc(-c3ccc(C(=O)Nc4cnn(C)c4)cc3)c3c(N)ncnc31)C2 (stereo not drawn) [Ex. 56, 4-(1-(2-acryloyl-2-azabicyclo[2.2.1]heptan-6-yl)-4-amino-1H-pyrazolo[3,4-d]pyrimidin-3-yl)-N-(1-methyl-1H-pyrazol-4-yl)benzamide] | 143 nM | – | –
24 | C=CC(=O)N1CC2CC1C(n1nc(-c3ccc(NC(=O)c4ccccc4N(C)C)cc3)c3c(N)ncnc31)C2 (stereo not drawn) [Ex. 57, N-(4-(1-(2-acryloyl-2-azabicyclo[2.2.1]heptan-6-yl)-4-amino-1H-pyrazolo[3,4-d]pyrimidin-3-yl)phenyl)-2-(dimethylamino)benzamide] | 8.8 nM | – | –
25 | Nc1ncnc2c1c(-c1ccc(Oc3ccccc3)cc1)nn2C1CC2CC1N(C(=O)/C=C/CN1CCOCC1)C2 (stereo not drawn) [Ex. 58, (E)-1-(6-(4-amino-3-(4-phenoxyphenyl)-1H-pyrazolo[3,4-d]pyrimidin-1-yl)-2-azabicyclo[2.2.1]heptan-2-yl)-4-morpholinobut-2-en-1-one] | 5.3 nM | – | –
